By Kd is commonly meant the free concentration of one partner at which half of the binding sites on the other are occupied at equilibrium, for simple one-to-one binding.

In patent publication US10913710B2, “Benzene disulfonamide for the treatment of cancer” (priority 2017, dated 2021) one finds Kd data, which are given here for 26 compounds.

The assay addresses PDEδ (Homo sapiens (Human), UniProt O43924). Put plainly: Fluorescence polarization competition binding assay: displacement titration of labeled Atorvastatin probe for KD. Conditions: fluorescence polarization assay; activity classes; read-out: KD. On the procedure:
Example D.2: Displacement Titrations of Labeled Atorvastatin-Probe for the Determination of KD Values
Displacement Titrations of Labeled Atorvastatin-Probe for the Determination of KD Values:
The purification was followed by size exclusion gel filtration on a Superdex 75 S26/60 column using buffer A (25 mM Tris-HCl, pH 7.5, 150 mM NaCl and 3 mM DTE).

Turning to `CN(C)S(=O)(=O)c1ccc(S(=O)(=O)N(Cc2ccc(Cl)cc2)Cc2ccco2)cc1` [Compound 71, N1-(4-chlorobenzyl)-N1-(furan-2-ylmethyl)-N4,N4-dimethylbenzene-1,4-disulfonamide], the Kd is above 1000 nM.
For `CC1CCCN(S(=O)(=O)c2ccc(S(=O)(=O)N(Cc3ccc4c(c3)OCO4)Cc3ccccc3F)cc2)C1` (centres unmarked) [Compound 72, N-(benzo[d][1,3]dioxol-5-ylmethyl)-N-(2-fluorobenzyl)-4-((3-methylpiperidin-1-yl)sulfonyl)benzenesulfonamide] the value was 100 to 1000 nM; for `COc1ccc(CN(Cc2ccc(C)cc2)S(=O)(=O)c2ccc(S(=O)(=O)N(C)Cc3ccccc3)cc2)cc1` [Compound 73, N1-benzyl-N4-(4-methoxybenzyl)-N1-methyl-N4-(4-methylbenzyl)benzene-1,4-disulfonamide], 100 to 1000 nM.
To `CN(Cc1ccccc1)S(=O)(=O)c1ccc(S(=O)(=O)N(Cc2ccc(Cl)cc2)Cc2ccco2)cc1` [Compound 74, N1-benzyl-N4-(4-chlorobenzyl)-N4-(furan-2-ylmethyl)-N1-methylbenzene-1,4-disulfonamide] belongs above 1000 nM; to `COc1ccc(CN(Cc2ccc3c(c2)OCO3)S(=O)(=O)c2ccc(S(=O)(=O)NC3CCCCC3)cc2)cc1OC` [Compound 75, N1-(benzo[d][1,3]dioxol-5-ylmethyl)-N4-cyclohexyl-N1-(3,4-dimethoxybenzyl)benzene-1,4-disulfonamide], above 1000 nM.
As for `CCOc1ccccc1CN(Cc1ccco1)S(=O)(=O)c1ccc(S(=O)(=O)NC2CCCCC2)cc1` [Compound 76, N1-cyclohexyl-N4-(2-ethoxybenzyl)-N4-(furan-2-ylmethyl)benzene-1,4-disulfonamide], the Kd lay within 100 to 1000 nM.
For `O=S(=O)(NCC1CCCO1)c1ccc(S(=O)(=O)N(Cc2ccccc2)Cc2ccccc2F)cc1` (centres unmarked) [Compound 77, N1-benzyl-N1-(2-fluorobenzyl)-N4-((tetrahydrofuran-2-yl)methyl)benzene-1,4-disulfonamide] the value was 100 to 1000 nM; for `O=S(=O)(c1ccc(S(=O)(=O)N(Cc2ccc(F)cc2)Cc2ccc(F)cc2)cc1)N1CCCCC1` [Compound 78, N,N-bis(4-fluorobenzyl)-4-(piperidin-1-ylsulfonyl)benzenesulfonamide], 100 to 1000 nM; for `CCOc1ccc(CN(CC2CCCO2)S(=O)(=O)c2ccc(S(=O)(=O)N3CCCCC3)cc2)cc1` (centres unmarked) [Compound 79, N-(4-ethoxybenzyl)-4-(piperidin-1-ylsulfonyl)-N-((tetrahydrofuran-2-yl)methyl)benzenesulfonamide], above 1000 nM.
On to `O=S(=O)(c1ccc(S(=O)(=O)N(Cc2ccc(F)cc2)CC2CCCO2)cc1)N1CCCCC1` (centres unmarked) [Compound 80, N-(4-fluorobenzyl)-4-(piperidin-1-ylsulfonyl)-N-((tetrahydrofuran-2-yl)methyl)benzenesulfonamide], for which the Kd was 30 to 100 nM.
For `COc1ccc(CN(Cc2ccccc2Cl)S(=O)(=O)c2ccc(S(=O)(=O)N3CCCCC3)cc2)cc1` [Compound 81, N-(2-chlorobenzyl)-N-(4-methoxybenzyl)-4-(piperidin-1-ylsulfonyl)benzenesulfonamide] the value was 30 to 100 nM; for `O=S(=O)(c1ccc(S(=O)(=O)N(Cc2ccc(Cl)cc2)CC2CCCO2)cc1)N1CCCCC1` (centres unmarked) [Compound 82, N-(4-chlorobenzyl)-4-(piperidin-1-ylsulfonyl)-N-((tetrahydrofuran-2-yl)methyl)benzenesulfonamide], 100 to 1000 nM; for `CN(C1CCCCC1)S(=O)(=O)c1ccc(S(=O)(=O)N(Cc2ccc(F)cc2)C2CC2)cc1` [Compound 83, N1-cyclohexyl-N4-cyclopropyl-N4-(4-fluorobenzyl)-N1-methylbenzene-1,4-disulfonamide], 30 to 100 nM.
Regarding `COc1cccc(CN(Cc2ccco2)S(=O)(=O)c2ccc(S(=O)(=O)NCC3CCCO3)cc2)c1` (centres unmarked) [Compound 84, N1-(furan-2-ylmethyl)-N1-(3-methoxybenzyl)-N4-((tetrahydrofuran-2-yl)methyl)benzene-1,4-disulfonamide], the Kd lay within 1 to 30 nM.
For `CCOc1ccc(CN(Cc2ccc(OC)cc2)S(=O)(=O)c2ccc(S(=O)(=O)N3CCCCC3)cc2)cc1` [Compound 85, N-(4-ethoxybenzyl)-N-(4-methoxybenzyl)-4-(piperidin-1-ylsulfonyl)benzenesulfonamide] the value was 100 to 1000 nM; for `O=S(=O)(c1ccc(S(=O)(=O)N(Cc2ccccc2)Cc2ccc(F)cc2)cc1)N1CCCC1` [Compound 86, N-benzyl-N-(4-fluorobenzyl)-4-(pyrrolidin-1-ylsulfonyl)benzenesulfonamide], above 1000 nM; for `CCN(CC)S(=O)(=O)c1ccc(S(=O)(=O)N(Cc2ccc(F)cc2)Cc2cccc(OC)c2OC)cc1` [Compound 87, N1-(2,3-dimethoxybenzyl)-N4,N4-diethyl-N1-(4-fluorobenzyl)benzene-1,4-disulfonamide], above 1000 nM.
For the compound `O=S(=O)(NCC1CCCO1)c1ccc(S(=O)(=O)N(Cc2ccc(F)cc2)C2CCCCC2)cc1` (centres unmarked) [Compound 88, N1-cyclohexyl-N1-(4-fluorobenzyl)-N4-((tetrahydrofuran-2-yl)methyl)benzene-1,4-disulfonamide], the Kd lay in the range of 100 to 1000 nM.
For `CCOc1ccccc1CN(Cc1ccco1)S(=O)(=O)c1ccc(S(=O)(=O)N(CC)C2CCCCC2)cc1` [Compound 89, N1-cyclohexyl-N4-(2-ethoxybenzyl)-N1-ethyl-N4-(furan-2-ylmethyl)benzene-1,4-disulfonamide] the value was 1 to 30 nM.
Regarding `O=S(=O)(NCc1ccccc1)c1ccc(S(=O)(=O)N(Cc2ccc(Cl)cc2)Cc2ccco2)cc1` [Compound 90, N1-benzyl-N4-(4-chlorobenzyl)-N4-(furan-2-ylmethyl)benzene-1,4-disulfonamide], the Kd lay within 100 to 1000 nM.
Consider `CN(Cc1ccccc1)S(=O)(=O)c1ccc(S(=O)(=O)N(Cc2ccc(F)cc2)C2CCCC2)cc1` [Compound 91, N1-benzyl-N4-cyclopentyl-N4-(4-fluorobenzyl)-N1-methylbenzene-1,4-disulfonamide], for which the Kd is 30 to 100 nM.
Consider `O=S(=O)(NC1CCCC1)c1ccc(S(=O)(=O)N(Cc2ccccc2)Cc2ccccn2)cc1` [Compound 92, N1-benzyl-N4-cyclopentyl-N1-(pyridin-2-ylmethyl)benzene-1,4-disulfonamide], for which the Kd lay in the range of 1 to 30 nM.
For `O=S(=O)(NC1CCCC1)c1ccc(S(=O)(=O)N(Cc2ccc(F)cc2)Cc2ccc(F)cc2)cc1` [Compound 93, N1-cyclopentyl-N4,N4-bis(4-fluorobenzyl)benzene-1,4-disulfonamide] the value was 100 to 1000 nM.
Consider `COc1ccc(CN(Cc2ccc3c(c2)OCO3)S(=O)(=O)c2ccc(S(=O)(=O)N3CCCC(C)C3)cc2)cc1OC` (centres unmarked) [Compound 94, N-(benzo[d][1,3]dioxol-5-ylmethyl)-N-(3,4-dimethoxybenzyl)-4-((3-methylpiperidin-1-yl)sulfonyl)benzenesulfonamide], for which the Kd is above 1000 nM.
`COc1ccc(CN(Cc2ccc(OC)c(OC)c2)S(=O)(=O)c2ccc(S(=O)(=O)N3CCCCC3)cc2)cc1` [Compound 95, N-(3,4-dimethoxybenzyl)-N-(4-methoxybenzyl)-4-(piperidin-1-ylsulfonyl)benzenesulfonamide]: the Kd was above 1000 nM.
Regarding `CN(Cc1ccccc1)S(=O)(=O)c1ccc(S(=O)(=O)N(Cc2ccccc2)Cc2ccccc2F)cc1` [Compound 96, N1,N4-dibenzyl-N1-(2-fluorobenzyl)-N4-methylbenzene-1,4-disulfonamide], the Kd is above 1000 nM.
